This note sets out measurements from publication PMC2527810, “[^18F]FDG and [^18F]FLT uptake in human breast cancer cells in relation to the effects of chemotherapy: an in vitro study” (British Journal of Cancer, 2008).

The target of one data set is T1, purified TK-2 (Homo sapiens, UniProt O00142).
T1 construct: gift: A. Karlsson, Karolinska Institute, Stockholm, Sweden
T1 sequence (O00142 34-265): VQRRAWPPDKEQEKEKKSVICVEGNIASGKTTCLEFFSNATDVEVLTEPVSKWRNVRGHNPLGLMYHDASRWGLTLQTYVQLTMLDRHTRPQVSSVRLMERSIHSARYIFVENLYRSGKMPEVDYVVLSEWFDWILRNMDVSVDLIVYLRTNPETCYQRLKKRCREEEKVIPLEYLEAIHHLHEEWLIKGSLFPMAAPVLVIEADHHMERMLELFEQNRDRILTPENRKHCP
As to the kind of experiment: FLT phosphorylation by purified TK-2. It is filed as biochemical. The procedure:
(§1) 3′-deoxy-3′-[^18F]fluorothymidine was diluted with 50 mM Tris/1 mM EDTA (pH 7.4) and 1 : 1 mixed with 20 mM ATP, 10 mM MgCl2, resulting in an FLT concentration of about 60 MBq ml^−1 (6.32–18.89 pmol per sample). […] was inhibited by addition of dCTP or the specific TK-2 inhibitor KIN52 (final concentration 2 μM) ([Balzarini et al, 2003]).
(§2) The assay was optimised for protein concentration and incubation times. Diluted cell lysates or purified TK-2 (kindly provided by A. Karlsson, Karolinska Institute, Stockholm, Sweden) were incubated with the FLT mixture for 15 min at 37°C and the reaction was stopped by heating the samples at 95°C for 5 min. Substrate (FLT) and product (FLT-phosphate) were separated by TLC and radioactivity was measured in a single-well gamma counter (Wallac1480 Wizard, Perkin Elmer Lifescience, MA, USA). Protein concentrations were measured in a Bio-Rad Bradford protein assay (Bio-Rad Laboratories, Hercules, CA, USA). Thymidine kinase activity was calculated as the amount of FLT converted into FLT-phosphate per hour per million cells (nmol h^−1 10^−6 cells).

Data set [1] has as its target T2, recombinant cytosolic TK-1 (Homo sapiens, UniProt P04183).
T2 sequence (P04183 1-234): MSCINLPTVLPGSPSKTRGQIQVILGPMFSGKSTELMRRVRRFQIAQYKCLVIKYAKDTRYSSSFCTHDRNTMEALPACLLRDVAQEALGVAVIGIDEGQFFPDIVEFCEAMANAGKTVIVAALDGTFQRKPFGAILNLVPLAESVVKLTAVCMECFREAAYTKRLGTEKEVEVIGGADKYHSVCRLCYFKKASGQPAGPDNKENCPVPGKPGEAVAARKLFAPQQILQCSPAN
Kind of data set: Phosphorylation of [CH3-3H]dThd by recombinant TK-1. It is filed as biochemical. The procedure: A 50 μl reaction mixture, containing 50 mM Tris-HCl, pH 8.0, 2.5 mM MgCl2, 10 mM dithiothreitol, 2.5 mM ATP, 1.0 mg ml^−1 bovine serum albumin, 10 mM NaF, [CH3-^3H]dThd (0.1 μCi in 5 μl; 1 μM final concentration) and 5 μl of recombinant enzyme, was incubated at 37°C for 30 min in the presence or absence of different concentrations of dCTP or KIN52.

Data set [2] addresses T3, recombinant mitochondrial TK-2 (Homo sapiens, UniProt O00142).
T3 sequence (O00142 34-265): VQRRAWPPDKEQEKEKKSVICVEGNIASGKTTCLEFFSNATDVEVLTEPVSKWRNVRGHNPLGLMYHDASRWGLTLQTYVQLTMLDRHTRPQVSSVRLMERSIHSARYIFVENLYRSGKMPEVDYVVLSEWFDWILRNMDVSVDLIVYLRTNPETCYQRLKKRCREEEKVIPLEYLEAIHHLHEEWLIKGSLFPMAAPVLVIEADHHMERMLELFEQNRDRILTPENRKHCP
As to the kind of experiment: Phosphorylation of [CH3-3H]dThd by recombinant TK-2. The format is biochemical. The procedure:
(§3) […] A 50 μl reaction mixture, containing 50 mM Tris-HCl, pH 8.0, 2.5 mM MgCl2, 10 mM dithiothreitol, 2.5 mM ATP, 1.0 mg ml^−1 bovine serum albumin, 10 mM NaF, [CH3-^3H]dThd (0.1 μCi in 5 μl; 1 μM final concentration) and 5 μl of recombinant enzyme, was incubated at 37°C for 30 min in the presence or absence of different concentrations of dCTP or KIN52. During this time, the enzyme reaction proceeded linearly. Formation of tritiated dTMP was measured by spotting aliquots of the reaction mixture on Whatman DE-81 filter paper disks, as described earlier ([Balzarini et al, 2003]).

A further data set deals with MDA MB231 cells. Kind of data set: Separation of cellular FLT and FLT-phosphate by TLC. Particulars: one hour after adding FLT. The format is cell-based, human. The text has this:
To discriminate between FLT and FLT-phosphate, cells in another identical plate were harvested and after stopping the enzyme reaction, cells were sonificated and spun down. 3′-deoxy-3′-[^18F]fluorothymidine and FLT-phosphate, present in the supernatant were separated as described above (section TK enzyme activity).

In data set [3] the test system is cellular TK activities (MDA MB231 cell lysates). As to the kind of experiment: Inhibition of cellular TK activity by TK-2 inhibitors added to cell lysates. The format is biochemical, human. The note with it: dCTP 10 μM added to cell lysates. The method, then: Cell pellets were suspended in 50 mM Tris/1 mM EDTA (pH 7.4) and sonificated on ice. Lysates were spun down and supernatant diluted 1 : 8 in 50 mM Tris/1 mM EDTA (pH 7.4).
as §1, §2

Substrate in data set [4]: Cc1cn([C@H]2C[C@H](O)[C@@H](CO)O2)c(=O)[nH]c1=O
As to the kind of experiment: Phosphorylation of [CH3-3H]dThd by recombinant TK-2. It is filed as biochemical. Particulars: other: TK-2, Lineweaver–Burk; pH 8.0; 37.0 °C. The procedure: as §3

Broadly, the Ki is the dissociation constant of the complex between target and ligand, obtained from inhibition or displacement. As for `Cc1cn([C@H]2C[C@H]([18F])[C@@H](CO)O2)c(=O)[nH]c1=O` [FLT, 3′-deoxy-3′-[^18F]fluorothymidine], the “conversion of FLT into FLT-phosphate” value at purified TK-2 (FLT added to purified TK-2) turned out to be 8%. For the same molecule, the Ki in data set [1] (TK-1, competitive vs dThd, read-out: Ki FLT) was found to be 1.9 µM. For the same molecule, in data set [2] (TK-2), the Ki/Km is listed as 3.2. In addition, the Ki in data set [2] (TK-2, competitive vs dThd, read-out: Ki FLT) worked out at 4.2 µM. Moreover, in the data set on MDA MB231 cells, the “cellular radioactivity as unphosphorylated FLT” value is “less than 20%” and the “cellular radioactivity counts due to FLT phosphate” value is “more than 80%”.

The IC50 is the midpoint of a concentration-inhibition curve. With `Nc1ccn([C@H]2C[C@H](O)[C@@H](COP(=O)(O)OP(=O)(O)OP(=O)(O)O)O2)c(=O)n1` [dCTP], the “inhibition of FLT phosphorylation by TK-2” value at purified TK-2 (dCTP 10 mM) turned out to be 97%. The concentration for half-maximal inhibition (IC50) in data set [1] (TK-1, 1 μM [CH3-3H]dThd as substrate) was around 5 µM; in data set [2] (TK-2, 1 μM [CH3-3H]dThd as substrate), around 50 µM. For the same molecule, in data set [3], the “inhibition of cellular TK activities” value was 55–90%.

B1: recombinant mitochondrial TK-2 (Homo sapiens) (protein)
chain: VQRRAWPPDKEQEKEKKSVICVEGNIASGKTTCLEFFSNATDVEVLTEPVSKWRNVRGHNPLGLMYHDASRWGLTLQTYVQLTMLDRHTRPQVSSVRLMERSIHSARYIFVENLYRSGKMPEVDYVVLSEWFDWILRNMDVSVDLIVYLRTNPETCYQRLKKRCREEEKVIPLEYLEAIHHLHEEWLIKGSLFPMAAPVLVIEADHHMERMLELFEQNRDRILTPENRKHCP
As a reminder, the Km is the concentration of substrate that gives half-maximal velocity. Regarding B1, the Km in data set [4] was found to be 1.3 µM.
